For four compounds, Km, Vmax and CL results are on record in ChEMBL document CHEMBL4665867, “Design and synthesis of analogues of the sphingosine-1-phosphate receptor 1 agonist IMMH001 with improved phosphorylation rate in human blood” (Bioorg Med Chem, 2020).

Each structure is given as a SMILES string.

Type in all cases: ADME, tissue-based
Data set [1] addresses T1, Sphingosine kinase 1/2 (Rattus norvegicus, UniProt Q91V26+A6JB73). Briefly: Prodrug conversion in rat blood assessed as SPHK1/SPHK2-mediated compound phosphorylation by measuring Km by LC-MS/MS analysis.
In data set [2] the target is T2, Sphingosine kinase 1/2 (Homo sapiens, UniProt Q9NRA0+Q9NYA1). Briefly: Prodrug conversion in human blood assessed as SPHK1/SPHK2-mediated compound phosphorylation by measuring Vmax by LC-MS/MS analysis.
The target of data set [3] is T2, Sphingosine kinase 1/2. Briefly: Prodrug conversion in human blood assessed as SPHK1/SPHK2-mediated compound phosphorylation by measuring intrinsic clearance by LC-MS/MS analysis.
Data set [4] addresses T1, Sphingosine kinase 1/2. Nature of the data set: Prodrug conversion in rat blood assessed as SPHK1/SPHK2-mediated compound phosphorylation by measuring Vmax by LC-MS/MS analysis.
Data set [5] concerns the target T1, Sphingosine kinase 1/2. Nature of the data set: Prodrug conversion in rat blood assessed as SPHK1/SPHK2-mediated compound phosphorylation by measuring intrinsic clearance by LC-MS/MS analysis.
Data set [6] has as its target T2, Sphingosine kinase 1/2. Nature of the data set: Prodrug conversion in human blood assessed as SPHK1/SPHK2-mediated compound phosphorylation by measuring Km by LC-MS/MS analysis.

As usually defined, the Km is the concentration of substrate that gives half-maximal velocity. The term Vmax denotes the top rate of the reaction or transport when substrate is in excess. As to `CCCc1nc(-c2ccc(-c3ccc(CCC(N)(CO)CO)cc3)cc2)co1.Cl`, the Km is 85.25 µM at Sphingosine kinase 1/2 [1] and 42.62 µM on Sphingosine kinase 1/2 [6]. Also, the results for the Vmax at Sphingosine kinase 1/2 [2] and at Sphingosine kinase 1/2 [4] were 0.53 pmol/min and 37.24 pmol/min, respectively. For the same compound, the CL on Sphingosine kinase 1/2 [3] worked out at 0.012 µL/min; on Sphingosine kinase 1/2 [5], 0.437 µL/min.
In the case of `CCCCCCCCc1ccc(CCC(N)(CO)CO)cc1.Cl` [FINGOLIMOD HYDROCHLORIDE], the Km was 64.6 µM at Sphingosine kinase 1/2 [1] and 23.7 µM at Sphingosine kinase 1/2 [6]. For the same compound, the Vmax at Sphingosine kinase 1/2 [2] is 0.31 pmol/min; at Sphingosine kinase 1/2 [4], 61.3 pmol/min. For the same compound, the results for the CL at Sphingosine kinase 1/2 [3] and at Sphingosine kinase 1/2 [5] were 0.013 µL/min and 0.95 µL/min, respectively.
For the compound `CCCc1nc(-c2ccc(-c3ccc(CC[C@@H](N)CO)cc3)cc2)co1.Cl`, the Km was 48.37 µM at Sphingosine kinase 1/2 [1] and 54.12 µM at Sphingosine kinase 1/2 [6]. Besides, the maximum rate (Vmax) on Sphingosine kinase 1/2 [2] was found to be 2.63 pmol/min; on Sphingosine kinase 1/2 [4], 16.15 pmol/min. The CL came out at 0.049 µL/min on Sphingosine kinase 1/2 [3] and 0.334 µL/min at Sphingosine kinase 1/2 [5].
In the case of `CCCc1nc(-c2ccc(-c3ccc(CC[C@@](C)(N)CO)cc3)cc2)co1.Cl`, the Km was 23.6 µM on Sphingosine kinase 1/2 [1] and 86.55 µM on Sphingosine kinase 1/2 [6]. The Vmax was determined as 2.15 pmol/min at Sphingosine kinase 1/2 [2] and 4.13 pmol/min on Sphingosine kinase 1/2 [4]. In addition, the CL on Sphingosine kinase 1/2 [3] was found to be 0.025 µL/min; at Sphingosine kinase 1/2 [5], 0.175 µL/min.
